BigSolDB 2.1

O=C(O)Cc1ccc([N+](=O)[O-])cc1
solubility (mole fraction)
Settings	283.15 K	288.15 K	293.15 K	298.15 K	303.15 K	308.15 K	313.15 K	318.15 K	323.15 K	328.15 K
in DMAc	0.0895	0.1	0.114	0.131	0.149	0.169	0.191	0.216	0.24	0.271
in DMF	0.161	0.178	0.2	0.225	0.251	0.28	0.311	0.342	0.377	0.417
in acetonitrile	0.0193	0.0223	0.0266	0.0312	0.0375	0.0449	0.0535	0.0639	0.0761	0.0918
in cyclohexane	1.2e-05	1.69e-05	2.3e-05	3.11e-05	4.12e-05	5.45e-05	7.11e-05	9e-05	0.000113	0.00014
in ethanol	0.0758	0.0849	0.0979	0.111	0.128	0.148	0.17	0.196	0.223	0.254
in ethyl acetate	0.0309	0.0352	0.041	0.0487	0.0576	0.0694	0.0823	0.098	0.116	0.137
in ethylene glycol	0.0168	0.0185	0.0213	0.0254	0.0301	0.0361	0.0428	0.0503	0.0596	0.0723
in isobutanol	0.025	0.0282	0.0323	0.0389	0.0464	0.0554	0.0658	0.0776	0.0917	0.11
in isopropanol	0.028	0.031	0.0373	0.0455	0.0542	0.065	0.0768	0.0914	0.109	0.131
in methanol	0.125	0.137	0.155	0.174	0.195	0.218	0.245	0.274	0.305	0.341
in n-butanol	0.0498	0.0564	0.0653	0.0758	0.0877	0.101	0.117	0.135	0.156	0.178
in n-propanol	0.0518	0.0589	0.0683	0.0784	0.0916	0.106	0.124	0.145	0.168	0.193
in water	0.000141	0.00017	0.000209	0.000264	0.000336	0.000422	0.000528	0.000663	0.000816	0.00101
